Type in all cases: cell-based
The target of one test is T1, human TLR8 (Homo sapiens, UniProt Q9NR97).
T1 construct: host or cells: HEK-Blue cells (HEK293-derived reporter line)
T1 sequence (Q9NR97 27-1041): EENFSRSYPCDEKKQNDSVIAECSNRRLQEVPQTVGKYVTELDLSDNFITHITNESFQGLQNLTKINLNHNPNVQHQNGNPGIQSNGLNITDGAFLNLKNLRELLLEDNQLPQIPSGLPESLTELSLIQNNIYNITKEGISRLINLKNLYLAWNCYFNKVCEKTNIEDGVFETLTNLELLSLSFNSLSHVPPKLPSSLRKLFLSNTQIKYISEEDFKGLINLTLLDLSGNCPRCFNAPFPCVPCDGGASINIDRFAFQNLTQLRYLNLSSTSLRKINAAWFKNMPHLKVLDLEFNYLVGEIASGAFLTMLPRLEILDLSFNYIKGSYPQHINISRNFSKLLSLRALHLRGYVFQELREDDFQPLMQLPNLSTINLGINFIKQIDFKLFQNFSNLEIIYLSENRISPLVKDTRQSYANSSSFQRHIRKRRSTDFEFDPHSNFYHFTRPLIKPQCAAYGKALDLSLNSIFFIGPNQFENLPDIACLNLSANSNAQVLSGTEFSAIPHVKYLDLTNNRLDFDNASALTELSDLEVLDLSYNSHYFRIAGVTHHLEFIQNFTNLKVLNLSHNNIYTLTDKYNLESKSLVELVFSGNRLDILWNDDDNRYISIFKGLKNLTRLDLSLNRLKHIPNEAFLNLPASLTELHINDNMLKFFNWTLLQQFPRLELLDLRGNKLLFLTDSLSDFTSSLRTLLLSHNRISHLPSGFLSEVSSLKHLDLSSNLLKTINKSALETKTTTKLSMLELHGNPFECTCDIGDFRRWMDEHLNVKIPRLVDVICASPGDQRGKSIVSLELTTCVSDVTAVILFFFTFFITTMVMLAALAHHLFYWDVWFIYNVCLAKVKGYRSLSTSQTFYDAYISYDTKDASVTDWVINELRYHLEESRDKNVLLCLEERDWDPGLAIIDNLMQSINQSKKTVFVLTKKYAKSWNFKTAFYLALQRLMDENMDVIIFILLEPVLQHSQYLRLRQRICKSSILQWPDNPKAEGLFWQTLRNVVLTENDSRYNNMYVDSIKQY
As to the kind of experiment: TLR8 inhibition reporter assay (HEK-Blue cells, SEAP reporter, R848 stimulation). The conditions noted are these: HEK-Blue cells overexpressing human TLR8, SEAP reporter, R848 15.9 μM. Summed up:
(§1)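 Cells seeded per well (15000 TLR7, 20,000 TLR8, 25,000 TLR9); compound added over 0.05 nM–50 μM for 30 min at room temperature; agonist added (TLR7 gardiquimod 7.5 μM, TLR8 R848 15.9 μM, TLR9 ODN2006 5 nM); 22 h at 37 °C; SEAP measured; percent inhibition calculated.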

Another test has as its target T2, human TLR7 (Homo sapiens, UniProt Q9NYK1).
T2 construct: host or cells: HEK-Blue cells (HEK293-derived reporter line)
T2 sequence (Q9NYK1 27-1049): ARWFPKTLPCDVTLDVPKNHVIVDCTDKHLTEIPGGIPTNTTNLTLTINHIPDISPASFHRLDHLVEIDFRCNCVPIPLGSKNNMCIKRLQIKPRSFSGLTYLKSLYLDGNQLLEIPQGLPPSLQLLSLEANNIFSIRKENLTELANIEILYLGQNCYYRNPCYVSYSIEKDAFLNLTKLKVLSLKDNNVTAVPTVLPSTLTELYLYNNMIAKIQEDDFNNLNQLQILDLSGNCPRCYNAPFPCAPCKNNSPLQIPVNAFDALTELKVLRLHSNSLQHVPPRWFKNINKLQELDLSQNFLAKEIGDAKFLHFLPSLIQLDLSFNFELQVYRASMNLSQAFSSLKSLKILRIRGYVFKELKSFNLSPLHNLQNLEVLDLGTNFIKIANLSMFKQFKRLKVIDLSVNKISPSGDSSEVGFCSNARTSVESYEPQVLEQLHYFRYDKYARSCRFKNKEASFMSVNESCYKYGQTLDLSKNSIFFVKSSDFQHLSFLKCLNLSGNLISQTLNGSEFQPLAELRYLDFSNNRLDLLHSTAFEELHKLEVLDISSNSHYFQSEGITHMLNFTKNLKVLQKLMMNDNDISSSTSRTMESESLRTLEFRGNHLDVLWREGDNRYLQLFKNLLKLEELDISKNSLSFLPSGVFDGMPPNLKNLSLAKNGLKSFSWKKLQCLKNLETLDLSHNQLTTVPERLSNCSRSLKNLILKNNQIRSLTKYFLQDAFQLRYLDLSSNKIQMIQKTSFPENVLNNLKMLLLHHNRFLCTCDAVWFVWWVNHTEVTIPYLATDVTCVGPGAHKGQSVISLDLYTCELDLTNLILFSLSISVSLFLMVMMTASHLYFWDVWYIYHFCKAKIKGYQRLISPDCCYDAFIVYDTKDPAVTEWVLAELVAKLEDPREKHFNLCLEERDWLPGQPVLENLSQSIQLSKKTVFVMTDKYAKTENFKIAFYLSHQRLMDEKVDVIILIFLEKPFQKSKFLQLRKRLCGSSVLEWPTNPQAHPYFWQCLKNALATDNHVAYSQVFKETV
As to the kind of experiment: TLR7 inhibition reporter assay (HEK-Blue cells, SEAP reporter, gardiquimod stimulation). To be noted: HEK-Blue cells overexpressing human TLR7, SEAP reporter, gardiquimod 7.5 μM. Summed up:
as §1
(In general: In a reporter assay the amount or activity of a reporter protein is the signal.)

Another test addresses T3, human TLR9 (Homo sapiens, UniProt Q9NR96).
T3 construct: host or cells: HEK-Blue cells (HEK293-derived reporter line)
T3 sequence (Q9NR96 26-1032): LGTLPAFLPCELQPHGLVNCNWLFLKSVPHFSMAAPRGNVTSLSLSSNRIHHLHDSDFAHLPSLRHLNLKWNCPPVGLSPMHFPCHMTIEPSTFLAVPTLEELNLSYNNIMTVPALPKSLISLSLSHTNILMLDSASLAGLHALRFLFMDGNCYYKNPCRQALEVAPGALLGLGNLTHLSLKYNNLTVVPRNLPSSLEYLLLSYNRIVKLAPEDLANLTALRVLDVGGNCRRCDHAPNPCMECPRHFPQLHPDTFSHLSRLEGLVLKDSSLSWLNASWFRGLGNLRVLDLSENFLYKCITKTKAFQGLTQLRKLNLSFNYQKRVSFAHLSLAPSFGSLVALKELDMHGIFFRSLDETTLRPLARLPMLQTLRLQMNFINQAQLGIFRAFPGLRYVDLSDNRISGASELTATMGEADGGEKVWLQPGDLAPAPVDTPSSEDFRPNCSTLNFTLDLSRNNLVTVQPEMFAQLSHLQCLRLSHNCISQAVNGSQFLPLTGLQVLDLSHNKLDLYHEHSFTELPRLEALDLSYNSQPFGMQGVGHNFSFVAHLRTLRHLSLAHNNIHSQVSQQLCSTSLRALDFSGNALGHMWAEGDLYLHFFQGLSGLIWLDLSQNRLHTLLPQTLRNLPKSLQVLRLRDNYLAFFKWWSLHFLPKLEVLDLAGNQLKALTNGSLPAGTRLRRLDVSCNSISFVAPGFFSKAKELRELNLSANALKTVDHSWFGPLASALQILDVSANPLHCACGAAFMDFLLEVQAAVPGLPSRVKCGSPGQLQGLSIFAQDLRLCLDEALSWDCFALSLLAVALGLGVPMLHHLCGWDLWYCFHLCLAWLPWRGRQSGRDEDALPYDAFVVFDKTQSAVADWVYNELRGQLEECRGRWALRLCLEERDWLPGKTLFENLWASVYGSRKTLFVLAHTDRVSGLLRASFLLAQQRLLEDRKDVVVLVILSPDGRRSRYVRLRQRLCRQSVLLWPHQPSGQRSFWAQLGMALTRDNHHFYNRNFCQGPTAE
As to the kind of experiment: TLR9 inhibition reporter assay (HEK-Blue cells, SEAP reporter, ODN2006 stimulation). The conditions noted are these: HEK-Blue cells overexpressing human TLR9, SEAP reporter, ODN2006 5 nM. The method in brief: as §1

Broadly, the IC50 is the concentration that inhibits the measured activity by half. Low readings indicate inhibition by little substance, high ones a need for much substance. With `Cc1cn2c(C)c(-c3[nH]c4ccc(C5CCNCC5)cc4c3C(C)C)ccc2n1` [Example 123, 6-(3-isopropyl-5-(piperidin-4-yl)-1H-indol-2-yl)-2,5-dimethylimidazo[1,2-a]pyridine], the IC50 on human TLR8 was 100 to 1000 nM; against human TLR7 it was under 100 nM; against human TLR9, 100 to 1000 nM.

Consider `CC(C)c1c(-c2cn(C)c3ncccc23)[nH]c2ccc(C3CCN(C4COC4)CC3)cc12` [Example 733, 3-(3-isopropyl-5-(1-(oxetan-3-yl)piperidin-4-yl)-1H-indol-2-yl)-1-methyl-1H-pyrrolo[2,3-b]pyridine], for which the IC50 is under 100 nM against human TLR8, under 100 nM against human TLR7 and 1000 to 50000 nM against human TLR9.

Take `CCc1c(-c2c(C)cnc3[nH]ccc23)[nH]c2ccc(C3CCNCC3)cc12` [Example 246, 4-(3-ethyl-5-(piperidin-4-yl)-1H-indol-2-yl)-5-methyl-1H-pyrrolo[2,3-b]pyridine]: the IC50 is under 100 nM at human TLR8, under 100 nM at human TLR7 and 100 to 1000 nM against human TLR9.

In the case of `CC(C)c1c(-c2ccc3nnnn3c2)[nH]c2ccc(C3CCN(CC(=O)N(C)C)CC3)cc12` [Example 301, 2-(4-(3-isopropyl-2-(tetrazolo[1,5-a]pyridin-6-yl)-1H-indol-5-yl)piperidin-1-yl)-N,N-dimethylacetamide], the results for the IC50 against human TLR8, at human TLR7 and against human TLR9 were 100 to 1000 nM, under 100 nM and 1000 to 50000 nM, respectively.

As for `Cc1cc(-c2[nH]c3ccc(C4CCN(S(=O)(=O)CCN(C)C)CC4)cc3c2C(C)C)cn2nnnc12` [Example 617, 2-((4-(3-isopropyl-2-(8-methyltetrazolo[1,5-a]pyridin-6-yl)-1H-indol-5-yl)piperidin-1-yl)sulfonyl)-N,N-dimethylethan-1-amine], the figures for the IC50 on human TLR8, at human TLR7 and on human TLR9 were under 100 nM, under 100 nM and 1000 to 50000 nM, respectively.

In the case of `Cc1nnn2ccc(-c3[nH]c4ccc(C5CCN(C6CCOCC6)CC5)cc4c3C(C)C)cc12` [Example 700, 5-(3-isopropyl-5-(1-(tetrahydro-2H-pyran-4-yl)piperidin-4-yl)-1H-indol-2-yl)-3-methyl-[1,2,3]triazolo[1,5-a]pyridine], the IC50 against human TLR8 is under 100 nM; against human TLR7, under 100 nM; against human TLR9, 100 to 1000 nM.

As for `Cc1cn2c(C)cc(-c3[nH]c4ccc(C5CCN(CC(=O)N(C)C)CC5)cc4c3C(C)C)cc2n1` [Example 353, 2-(4-(2-(2,5-dimethylimidazo[1,2-a]pyridin-7-yl)-3-isopropyl-1H-indol-5-yl)piperidin-1-yl)-N,N-dimethylacetamide], the values for the IC50 against human TLR8, against human TLR7 and against human TLR9 were 1000 to 50000 nM, 100 to 1000 nM and 100 to 1000 nM, respectively.

Turning to `CC(C)c1c(-c2ccc(C#N)c3[nH]ncc23)[nH]c2ccc(C3CCNCC3)cc12` [Example 235, 4-(3-isopropyl-5-(piperidin-4-yl)-1H-indol-2-yl)-1H-indazole-7-carbonitrile], the concentration for half-maximal inhibition (IC50) at human TLR8, on human TLR7 and at human TLR9 was 1000 to 50000 nM each time.

Regarding `CC(C)c1c(-c2ccc3nccn3c2)[nH]c2ccc(C3CCN(C(=O)C4CC(=O)N(C)C4)CC3)cc12` (stereo not drawn) [Example 645, 4-(4-(2-(imidazo[1,2-a]pyridin-6-yl)-3-isopropyl-1H-indol-5-yl)piperidine-1-carbonyl)-1-methylpyrrolidin-2-one], the IC50 against human TLR8 is 100 to 1000 nM; against human TLR7, under 100 nM; against human TLR9, over 50000 nM.

Turning to `Cc1cc(-c2[nH]c3ccc(C4CCN(C(=O)CN(C)C(C)(C)C)CC4)cc3c2C(C)C)cn2nnnc12` [Example 481, 2-(tert-butyl(methyl)amino)-1-(4-(3-isopropyl-2-(8-methyltetrazolo[1,5-a]pyridin-6-yl)-1H-indol-5-yl)piperidin-1-yl)ethan-1-one], the IC50 was under 100 nM at human TLR8, under 100 nM against human TLR7 and 1000 to 50000 nM on human TLR9.

For the molecule `CC(C)c1c(-c2ccc3ncnn3n2)[nH]c2ccc(C3CCN(C4COC4)CC3)cc12` [Example 729, 6-(3-isopropyl-5-(1-(oxetan-3-yl)piperidin-4-yl)-1H-indol-2-yl)-[1,2,4]triazolo[1,5-b]pyridazine], the IC50 is 100 to 1000 nM against human TLR8, under 100 nM against human TLR7 and 1000 to 50000 nM against human TLR9.

On to `CCc1c(-c2ccnc3c(N)noc23)[nH]c2ccc(C3CCNCC3)cc12` [Example 239, 7-(3-ethyl-5-(piperidin-4-yl)-1H-indol-2-yl)isoxazolo[4,5-b]pyridin-3-amine], for which the IC50 was 100 to 1000 nM on human TLR8, 1000 to 50000 nM against human TLR7 and 100 to 1000 nM against human TLR9.

`CC(C)c1c(-c2ccnc3[nH]ncc23)[nH]c2ccc(C3CCN(C4CCNCC4C)CC3)cc12` (stereo not drawn) [Example 834, 4-(3-isopropyl-5-(3′-methyl-[1,4′-bipiperidin]-4-yl)-1H-indol-2-yl)-1H-pyrazolo[3,4-b]pyridine]: the IC50 is under 100 nM on human TLR8, under 100 nM against human TLR7 and 100 to 1000 nM on human TLR9.
